What was measured:
[1] = biological target: T1, serotonin 5-HT2A receptor (Rattus norvegicus, UniProt P14842); experiment: radioligand binding assay, 5-HT2A, [3H]ketanserin; conditions: rat brain cortex; for Ki: read-out: Ki ± SD, 5-HT2A [3H]Ketanserin
T1 construct: serotonin 5-HT2A receptor, [^3H]ketanserin, rat brain cortex; from tissue; host or cells: rat brain cortex
Protocol: All reactions were monitored by TLC, carried out on Merck 60G F254 plates with fluorescent indicator and the plates were visualized with UV light (254 nm). Each final compound and intermediate was purified by silica gel column chromatography (Macherey-Nagel 60 0,063–0,2 mm/70–230 mesh). […] Unless otherwise stated, all spectra were recorded in CDCl3. Chemical shifts are reported in ppm using Me4Si as internal standard. The following abbreviations are used to describe peak patterns when appropriate: s (singlet), d (doublet), t (triplet), m (multiplet), q (quartet), qt (quintet), dd (double doublet), ddd (double dd), bs (broad singlet). Mass spectra of the final products were performed on LTQ Orbitrap XL™ Fourier transform mass spectrometer (FTMS) equipped with ESI ION MAX™ source (Thermo Fisher, San José, USA). Melting points were determined using a Buchi B-540 hot-stage instrument and are uncorrected. […] All the compounds were dissolved in 5% DMSO. The following specific radioligands and tissue sources were used: (a)serotonin 5-HT1A receptor, [^3H]-8-OH-DPAT, rat brain cortex; (b) serotonin 5-HT2A receptor, [^3H]ketanserin, rat brain cortex; (c)serotonin 5-HT2C receptor, [^3H]mesulergine, rat brain cortex. Non-specific binding was determined as described in the experimental section, and specific binding as the difference between total and non-specific binding. […] The IC50 values obtained were used to calculate apparent inhibition constants (Ki) by the method of Cheng and Prussoff, from the following equation: Ki = IC50/(1 + S/KD) where S represents the concentration of the hot ligand used and KD its receptor dissociation constant (KD values, obtained by Scatchard analysis, were calculated for each labeled ligand). Radioligand binding assays for 5-HT1A were performed following a published procedure. 5-HT2A and 5-HT2C binding assays were performed reported by Herndon et al..

HT2C receptor = experiment: 5-HT2C protein levels, Western blot; format: cell-based, human; conditions: 72 h, MCF7, Tamoxifen-cultured MCF7 and MCF7-R cells
Protocol: RIPA buffer (Promega, Madison, Wisconsin, USA) was used for proteins’ extraction. Lysates ([…] protein/sample) were blotted with anti-5HT2C (1:500). Total lysates were normalized using anti-Vinculin (1:10000). The autoradiographs shown were obtained by ECL kit (Bio-Rad, Hercules, CA, USA).
Figure S4. 5-HT2C protein in MCF7, Tamoxifen-cultured MCF7 and MCF-R cells in absence or in presence of SER.
Cells were treated with 5µM SER79 or 20µM SER68. Alter 72h, cell lysa te swere obtained and 5-HT2C protein le ve lswere measured by western blot analysis. Vinculin was used for protein le ve ls normalization. […]
(1 picture or pasted object on this page, not shown here)

CTGF = CTGF mRNA levels in Tamoxifen-cultured MCF7 cells, qPCR; format: cell-based, human; conditions: Tamoxifen-cultured MCF7, doses able to restore Tamoxifen responsiveness, 72 h
Protocol: Total RNA was isolated from cells, quantified (NanoDrop spectrophotometer, Life Technologies, Carlsbad, CA, USA) and reverse transcribed according to the manufacturer’s instructions. Semiquantitative PCR and qPCR assays were performed according to manufacturer’s instructions for Bio-Rad T100 thermal cycler and CFX Connect Real Time system (Biorad, Hercules, CA, USA), respectively. Relative gene expression quantification was measured by 2^−ΔΔCt method normalizing for the reference sample using Rps23 (Ribosomal Protein S23) as housekeeping gene.
Fig. 8 Effect of SER79 and SER68 on Tamoxifen-cultured MCF7 cells. MCF7 cells were cultured in presence of Tamoxifen (1 μM) for 10 days. Estrogen-starved MCF7 and Tamoxifen-cultured MCF7 cells (48 h) were (a-c) treated with SER79 (20 μM, 5 μM) or SER68 (40 μ, 20 μM), (b) treated with Tamoxifen (5 μM) in presence of SER79 (20 μM, 5 μM) or SER68 (40 μM, 20 μM). All treatments were carried out in presence of E2 (100 nM) for 72 h. As positive control, the cells were treated with (a-c) E2 alone or (b) E2 in absence or in presence of SER (as indicated, dotted line). a,b Cell viability was assessed by sulforhodamine B assay (see Methods). The results were reported as percentage of viable cells compared to positive control, considered as maximum viability (100%). c mRNA levels of CTGF were determined by qPCR (see Methods and Table 1). […]

T1 sequence (P14842 whole entry): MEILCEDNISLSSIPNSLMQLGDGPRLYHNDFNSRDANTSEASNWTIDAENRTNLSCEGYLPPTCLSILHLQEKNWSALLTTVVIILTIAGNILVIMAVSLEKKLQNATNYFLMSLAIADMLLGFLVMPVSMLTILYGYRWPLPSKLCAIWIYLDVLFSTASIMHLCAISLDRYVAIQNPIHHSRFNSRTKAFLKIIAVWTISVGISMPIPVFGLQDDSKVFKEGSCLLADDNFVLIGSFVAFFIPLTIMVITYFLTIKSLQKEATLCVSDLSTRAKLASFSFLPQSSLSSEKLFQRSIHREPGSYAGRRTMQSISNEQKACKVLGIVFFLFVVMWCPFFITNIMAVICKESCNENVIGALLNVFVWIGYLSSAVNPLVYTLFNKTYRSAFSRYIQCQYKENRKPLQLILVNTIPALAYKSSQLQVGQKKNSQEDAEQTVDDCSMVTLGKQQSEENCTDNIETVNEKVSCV

SMILES | Ki [1] [nM] | change in protein levels of HT2C receptors upon SER treatment (HT2C receptor; 20 µM) | CTGF levels after SER compared with those in Tamoxifen-responsive MCF7 cells (CTGF) | Ki ± SD, 5-HT2A [3H]Ketanserin [1] | change in protein levels of HT2C receptors upon SER treatment (HT2C receptor; 5 µM)
O=C1C2C3C=CC(C3)C2C(=O)N1OCCN1CCN(c2ccc(Cl)c(Cl)c2)CC1 (stereo not shown) [SER68] | 153 ± 70 | no difference in protein levels | significantly lower |  | 
N#CN=C(NCCCN1CCN(C(c2ccc(F)cc2)c2ccc(F)cc2)CC1)c1ccccn1 [SER79] | 504 ± 39.5 |  | similar | weak | no difference in protein levels
